Results taken from patent US20260256764A1, “COMPOSITIONS AND METHODS FOR ORAL DELIVERY OF SUSTAINED RELEASE CRYSTALLINE PRX-3140” (NANOPHARMACEUTICS, INC., priority 2023, published 2026).

Assays:
[1] = test system: more than 50 other receptors including GPCRs, ion channels and receptor tyrosine kinases; assay: binding to other receptors tested
Excerpt: . The specific ligand binding to the receptors is defined as the difference between the total binding and the nonspecific binding determined in the presence of an excess of unlabelled ligand. […]

[2] = Photostability study (ICH Q1B), HPLC; assay type: physicochemical
Description: […]. Samples were exposed to ICH photostability guideline Q1B=1.2 million lux hours of cool, white fluorescent light & 200 watt hours/m2 of UVA light at […]. Samples were exposed for 2 days and tested using HPLC.
[…]. The light exposure was performed in a cabinet set at 25 degrees Celsius/60% RH.
[…]. Changes were evident for crystalline fine particle Form I of PRX-3140 potassium salt after exposure to UVA and white light. The sample changed color particularly on the upper exposed surface of the material and there were changes apparent in the HPLC data. […]. The single impurity profile met the specification (0.20) but significant changes were observed. There was an increase in the number of minor impurities, particularly in a region of the chromatogram between RRT 1.5 and 2.1. Total impurities increased from 0.20% in the control sample to 0.770 in the exposed sample. An impurity at RRT 1.83 which was not present before exposure to light was formed at 0.16% in the exposed sample. Other changes included a change in appearance of the material to a sticky solid and an increase in water content to 4.3% w/w.

[3] = Forced degradation study (acid, base, 3% hydrogen peroxide), LC-UV-MS; assay type: physicochemical; conditions: 24 hours; for percent peak area at 250 nm, RRT 1.00 (purity of parent molecule) / percent peak area at 250 nm, RRT 1.05 (PRX-3140b): potassium salt
Description: Example 4—Crystalline PRX-3140 Potassium Salt Forced Degradation Study. Crystalline fine particle Form I of PRX-3140 potassium salt was subjected to a forced degradation study using acid, base, or hydrogen peroxide exposure for 24 hours. Samples were neutralized and analyzed using LC-UV-MS.
Sample Preparation: Crystalline fine particle Form I of PRX-3140 potassium salt, 50 mg, was weighed out into a 25 mL volumetric flask and taken to volume with water (2 mg/mL stock). One mL of stock was added to four, 4 mL vials. One mL of either 1N HCl, 1N NaOH, 3% H2O2, or DI Water (control) was added to the appropriate vial, mixed, and stored at room temperature for 24 hours. After storage, the samples of acid and base were neutralized by addition of 1 mL their counter solution. […] Samples were analyzed using LC-UV-MS.
Table 5 lists a comparison for the control, acid, base, and peroxide samples showing percent peak area versus relative retention time (RRT) at 250 nm. While some minor changes can be noted between the control with the acid and base samples, the overall purity (peak area) of the parent molecule is just slightly higher for the acid and base sample. Some of the minor impurities appear to be reacting with the acid or base, potentially reforming to the parent.

[4] = 30% peroxide degradation study; assay type: physicochemical; conditions: 18-hour exposure to 30% hydrogen peroxide; 250 nm
Description: […]. Sample was evaporated to dryness and analyzed using LC/UV/MS and NMR analysis. Two major degradants are noted in the LC/UV/MS.
[…]. The solvent is removed under vacuum at RT, then acetonitrile (5 mL) was added to the residue and evaporated to dryness at 40 degrees Celsius. […].
Two milligrams of the sample was weighed into a 4 mL vial. Two mL of 20/80 methanol/water was added to the vial and vortexed vigorously. FIG. 9A is a HPLC chromatogram of the H2O2 sample at 250 nm. Three major peaks are noted, including the parent molecule at 12.5 minutes. […]. Maximums are noted at 220, 250, and 320 nm. Chromatograms for all samples were collected at all three wavelengths with 250 nm as the primary wavelength based on lambda max. FIG. 10A is the UV spectra for the peak at 8.9 minutes. In comparison with the parent molecule, the high-end absorption is absent (320 nm). FIG. 10B is the UV spectra for the peak at 12.9 minutes. […]. An [M+H]+ is noted at 258.0 m/z with [M+H+NH3]+ at 275.1, [M+Na]+ at 280.1, and [2M+Na]+ at 537.1 m/z. It is noted that this is a fragile molecule and required the reduction of the Fragmentor Voltage from 150V down to 70V to see the protonated molecular ion. […] FIG. 11C is the mass spectra of the largest degradation product of PRX-3140b at 12.9 minutes, relative retention time (RRT) of 1.04 (compared to 1.05 in Example 4). […]

blood glucose = assay: Blood glucose levels after oral PRX-3140 potassium salt; assay type: in vivo, human; conditions: 15 mg orally, single dose, fed conditions, male volunteers
Description: Example 18—Blood Glucose Levels of Controls vs. Sustained-Release Oral PRX-3140 Potassium Salt Capsules. A Phase I, single dose escalation study under fed conditions was conducted in male volunteers with PRX-3140 potassium salt at the 15 mg dose level. […] The study was also conducted to examine the effects of PRX-3140 sustained-release capsule administration on the subjects' fasting and postprandial blood glucose concentrations. Subjects were monitored daily for vital signs (including blood pressure, heart rate, respiratory rate, and temperature) and adverse events. In addition, blood was drawn to assess glucose concentration. Glucose was tested within 60 minutes prior to meals in the morning and throughout the day at different timepoints.

[5] = Acid (1N HCl), listed as PRX-3140 Potassium Salt
[6] = Acid (1N HCl), listed as PRX-3140 potassium salt
[7] = Base (1N NaOH), listed as PRX-3140 Potassium Salt
[8] = Base (1N NaOH), listed as PRX-3140 potassium salt
[9] = Control (DI Water), listed as PRX-3140 Potassium Salt
[10] = Control (DI Water), listed as PRX-3140 potassium salt
[11] = H2O2 (3%), listed as PRX-3140 Potassium Salt
[12] = H2O2 (3%), listed as PRX-3140 potassium salt

CC(C)n1c(=O)c(C(=O)NCCCN2CCCCC2)c([O-])c2ccsc21.[K+] [PRX-3140, 6,7-Dihydro-4-hydroxy-7-isopropyl-6-oxo-N-(3-(piperidin-1-yl)propyl)thieno[2,3-b]pyridine-5-carboxamide potassium salt]
affinity for more than 50 other receptors tested [1]: no significant affinity
assay value ([2]; Exposed Sample (ICH Q1B light, 2 days)): 94.20 % w/w
Water Content - KF ([2]; t = 0, listed as PRX-3140 potassium salt, potassium salt): 0.900 % w/w
percent peak area at 250 nm, RRT 0.99 ([3]; Acid (1N HCl)): 0.07%
percent peak area at 250 nm, RRT 1.08 ([3]; Acid (1N HCl)): 0.11%
percent peak area at 250 nm, RRT 1.11 ([3]; Acid (1N HCl)): 0.04%
percent peak area at 250 nm, RRT 1.27 ([3]; Acid (1N HCl)): 0.04%
percent peak area at 250 nm, RRT 1.34 ([3]; Acid (1N HCl)): 0.15%
percent peak area at 250 nm, RRT 1.53 ([3]; Acid (1N HCl)): 0.43%
percent peak area at 250 nm, RRT 1.79 ([3]; Acid (1N HCl)): 0.04%
percent peak area at 250 nm, RRT 2.51 ([3]; Acid (1N HCl)): 0.06%
percent peak area at 250 nm, RRT 2.70 ([3]; Acid (1N HCl)): 0.13%
percent peak area at 250 nm, RRT 1.00 (purity of parent molecule) [3, 5]: 98.94%
percent peak area at 250 nm, RRT 1.05 (PRX-3140b) [3, 5]: <0.03%
percent peak area at 250 nm, RRT 1.00 (purity of parent molecule) [3, 6]: 98.9%
percent peak area at 250 nm, RRT 1.05 (PRX-3140b) [3, 6]: < 0.03%
percent peak area at 250 nm, RRT 0.94 ([3]; Base (1N NaOH)): 0.28%
percent peak area at 250 nm, RRT 1.08 ([3]; Base (1N NaOH)): 0.12%
percent peak area at 250 nm, RRT 1.34 ([3]; Base (1N NaOH)): 0.16%
percent peak area at 250 nm, RRT 1.53 ([3]; Base (1N NaOH)): 0.42%
percent peak area at 250 nm, RRT 1.79 ([3]; Base (1N NaOH)): 0.05%
percent peak area at 250 nm, RRT 2.51 ([3]; Base (1N NaOH)): 0.05%
percent peak area at 250 nm, RRT 2.70 ([3]; Base (1N NaOH)): 0.12%
percent peak area at 250 nm, RRT 1.00 (purity of parent molecule) [3, 7]: 98.71%
percent peak area at 250 nm, RRT 1.05 (PRX-3140b) [3, 7]: <0.03%
percent peak area at 250 nm, RRT 1.00 (purity of parent molecule) [3, 8]: 98.7%
percent peak area at 250 nm, RRT 1.05 (PRX-3140b) [3, 8]: < 0.03%
percent peak area at 250 nm, RRT 1.08 ([3]; Control (DI Water)): 0.12%
percent peak area at 250 nm, RRT 1.11 ([3]; Control (DI Water)): 0.04%
percent peak area at 250 nm, RRT 1.34 ([3]; Control (DI Water)): 0.17%
percent peak area at 250 nm, RRT 1.53 ([3]; Control (DI Water)): 0.42%
percent peak area at 250 nm, RRT 1.71 ([3]; Control (DI Water)): 0.23%
percent peak area at 250 nm, RRT 1.79 ([3]; Control (DI Water)): 0.11%
percent peak area at 250 nm, RRT 1.93 ([3]; Control (DI Water)): 0.06%
percent peak area at 250 nm, RRT 2.51 ([3]; Control (DI Water)): 0.06%
percent peak area at 250 nm, RRT 2.70 ([3]; Control (DI Water)): 0.18%
percent peak area at 250 nm, RRT 1.00 (purity of parent molecule) [3, 9]: 98.60%
percent peak area at 250 nm, RRT 1.05 (PRX-3140b) [3, 9]: <0.03%
percent peak area at 250 nm, RRT 1.00 (purity of parent molecule) [3, 10]: 98.6%
percent peak area at 250 nm, RRT 1.05 (PRX-3140b) [3, 10]: < 0.03%
percent peak area at 250 nm, RRT 1.00 (purity of parent molecule) ([3]; Control (DI Water)): 98.6%
percent peak area at 250 nm, RRT 0.78 (PRX-3140a) ([3]; H2O2 (3%)): 8.49%
percent peak area at 250 nm, RRT 0.82 ([3]; H2O2 (3%)): 0.10%
percent peak area at 250 nm, RRT 1.08 ([3]; H2O2 (3%)): 0.19%
percent peak area at 250 nm, RRT 1.27 ([3]; H2O2 (3%)): 0.21%
percent peak area at 250 nm, RRT 1.34 ([3]; H2O2 (3%)): 0.09%
percent peak area at 250 nm, RRT 1.42 ([3]; H2O2 (3%)): 0.32%
percent peak area at 250 nm, RRT 1.53 ([3]; H2O2 (3%)): 0.42%
percent peak area at 250 nm, RRT 1.79 ([3]; H2O2 (3%)): 0.19%
percent peak area at 250 nm, RRT 2.70 ([3]; H2O2 (3%)): 0.11%
percent peak area at 250 nm, RRT 1.00 (purity of parent molecule) [3, 11]: 80.57%
percent peak area at 250 nm, RRT 1.05 (PRX-3140b) [3, 11]: 9.06%
percent peak area at 250 nm, RRT 1.00 (purity of parent molecule) [3, 12]: 80.6%
percent peak area at 250 nm, RRT 1.05 (PRX-3140b) [3, 12]: 9.1%
percent peak area at 250 nm, RRT 1.00 (purity of parent molecule) ([3]; H2O2 (3%)): 80.6%
purity of the parent molecule PRX-3140 [4]: 29.6%
mean blood glucose level decrease compared to control values (blood glucose): −19.5%
